{"source": "patent US20260285850A1", "about": "“SUBSTITUTED OXAZOLIDINONES AND IMIDAZOLINONES AS HERBICIDES” (FMC CORPORATION, priority 2023, published 2026)", "assay_type_in_all_cases": "in vivo", "key": {"[1]": {"tested_on": "wheat (Triticum aestivum)", "assay": "Test A preemergence soil spray, visual injury rating 0-100", "details": "10 days, 0 = no effect, 100 = complete control", "procedure,_shortened": "(§1)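 Compounds formulated in a non-phytotoxic solvent with surfactant are sprayed onto soil of freshly planted loam-sand pots ahead of emergence, or onto emerged plants 2-10 cm tall. After a 10-day greenhouse period, each species is scored visually for injury against untreated controls.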"}, "[2]": {"tested_on": "oat, wild (wild oat, Avena fatua)", "assay": "Test A preemergence soil spray, visual injury rating 0-100", "details": "10 days, 0 = no effect, 100 = complete control", "procedure,_shortened": "as §1"}, "[3]": {"tested_on": "soybean (Glycine max)", "assay": "Test A preemergence soil spray, visual injury rating 0-100", "details": "10 days, 0 = no effect, 100 = complete control", "procedure,_shortened": "as §1"}, "[4]": {"tested_on": "palmer (palmer amaranth, palmer pigweed, Amaranthus palmeri)", "assay": "Test A preemergence soil spray, visual injury rating 0-100", "details": "10 days, 0 = no effect, 100 = complete control", "procedure,_shortened": "as §1"}, "[5]": {"tested_on": "green foxtail (Setaria viridis)", "assay": "Test A preemergence soil spray, visual injury rating 0-100", "details": "10 days, 0 = no effect, 100 = complete control", "procedure,_shortened": "as §1"}, "[6]": {"tested_on": "corn (Zea mays)", "assay": "Test A preemergence soil spray, visual injury rating 0-100", "details": "10 days, 0 = no effect, 100 = complete control", "procedure,_shortened": "as §1"}, "[7]": {"tested_on": "barnyardgrass (Echinochloa crus-galli)", "assay": "Test A preemergence soil spray, visual injury rating 0-100", "details": "10 days, 0 = no effect, 100 = complete control", "procedure,_shortened": "as §1"}, "[8]": {"tested_on": "ragweed (common ragweed, Ambrosia artemisiifolia)", "assay": "Test A preemergence soil spray, visual injury rating 0-100", "details": "10 days, 0 = no effect, 100 = complete control", "procedure,_shortened": "as §1"}, "[9]": {"tested_on": "blackgrass (Alopecurus myosuroides)", "assay": "Test A preemergence soil spray, visual injury rating 0-100", "details": "10 days, 0 = no effect, 100 = complete control", "procedure,_shortened": "as §1"}, "[10]": {"tested_on": "ryegrass, Italian (italian ryegrass, Lolium multiflorum)", "assay": "Test A preemergence soil spray, visual injury rating 0-100", "details": "10 days, 0 = no effect, 100 = complete control", "procedure,_shortened": "as §1"}, "[11]": {"tested_on": "kochia (Bassia scoparia)", "assay": "Test A preemergence soil spray, visual injury rating 0-100", "details": "10 days, 0 = no effect, 100 = complete control", "procedure,_shortened": "as §1"}, "[12]": {"tested_on": "barnyardgrass (Echinochloa crusgalli)", "assay": "Test B flooded paddy test, visual plant response rating 0-100", "details": "250 g ai/ha, Flood, applied to paddy water, evaluated after 13 days", "procedure,_shortened": "(§2)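 In this flooded assay, 2-leaf seedlings received compound through the water layer, kept at 3 cm over the soil. Plants were held 13 days in a greenhouse and then visually compared with control pots.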"}, "[13]": {"tested_on": "rice (Oryza sativa)", "assay": "Test B flooded paddy test, visual plant response rating 0-100", "details": "250 g ai/ha, Flood, applied to paddy water, evaluated after 13 days", "procedure,_shortened": "as §2"}, "[14]": {"tested_on": "ducksalad (Heteranthera limosa)", "assay": "Test B flooded paddy test, visual plant response rating 0-100", "details": "250 g ai/ha, Flood, applied to paddy water, evaluated after 13 days", "procedure,_shortened": "as §2"}, "[15]": {"tested_on": "sedge, umbrella (small-flower umbrella sedge, Cyperus difformis)", "assay": "Test B flooded paddy test, visual plant response rating 0-100", "details": "250 g ai/ha, Flood, applied to paddy water, evaluated after 13 days", "procedure,_shortened": "as §2"}, "[16]": {"tested_on": "wheat (Triticum aestivum)", "assay": "Test A postemergence application, visual injury rating 0-100", "details": "10 days", "procedure,_shortened": "as §1"}, "[17]": {"tested_on": "oat, wild (wild oat, Avena fatua)", "assay": "Test A postemergence application, visual injury rating 0-100", "details": "10 days", "procedure,_shortened": "as §1"}, "[18]": {"tested_on": "soybean (Glycine max)", "assay": "Test A postemergence application, visual injury rating 0-100", "details": "10 days", "procedure,_shortened": "as §1"}, "[19]": {"tested_on": "horseweed (Erigeron canadensis)", "assay": "Test A postemergence application, visual injury rating 0-100", "details": "10 days", "procedure,_shortened": "as §1"}, "[20]": {"tested_on": "palmer (palmer amaranth, palmer pigweed, Amaranthus palmeri)", "assay": "Test A postemergence application, visual injury rating 0-100", "details": "10 days", "procedure,_shortened": "as §1"}, "[21]": {"tested_on": "green foxtail (Setaria viridis)", "assay": "Test A postemergence application, visual injury rating 0-100", "details": "10 days", "procedure,_shortened": "as §1"}, "[22]": {"tested_on": "galium (catchweed bedstraw, Galium aparine)", "assay": "Test A postemergence application, visual injury rating 0-100", "details": "10 days", "procedure,_shortened": "as §1"}, "[23]": {"tested_on": "corn (Zea mays)", "assay": "Test A postemergence application, visual injury rating 0-100", "details": "10 days", "procedure,_shortened": "as §1"}, "[24]": {"tested_on": "barnyardgrass (Echinochloa crus-galli)", "assay": "Test A postemergence application, visual injury rating 0-100", "details": "10 days", "procedure,_shortened": "as §1"}, "[25]": {"tested_on": "ragweed (common ragweed, Ambrosia artemisiifolia)", "assay": "Test A postemergence application, visual injury rating 0-100", "details": "10 days", "procedure,_shortened": "as §1"}, "[26]": {"tested_on": "blackgrass (Alopecurus myosuroides)", "assay": "Test A postemergence application, visual injury rating 0-100", "details": "10 days", "procedure,_shortened": "as §1"}, "[27]": {"tested_on": "ryegrass, Italian (italian ryegrass, Lolium multiflorum)", "assay": "Test A postemergence application, visual injury rating 0-100", "details": "10 days", "procedure,_shortened": "as §1"}, "[28]": {"tested_on": "kochia (Bassia scoparia)", "assay": "Test A postemergence application, visual injury rating 0-100", "details": "10 days", "procedure,_shortened": "as §1"}, "[29]": {"details": "31 g ai/ha, postemergence, 0 = no effect, 100 = complete control"}, "[30]": {"details": "Postemergence, 125 g ai/ha, 0 is no effect, 100 is complete control"}}, "data": [{"smiles": "CCOC(=O)C1CCC(NC(=O)C2(C)CN(c3cc(F)cc(Cl)c3)C(=O)O2)C1", "note": "(stereo not shown) [Compound 19]", "values": [{"measurement": "Wheat plant response rating (0-100)", "setting": "[1]; 31 g ai/ha", "result": 70}, {"measurement": "Wheat plant response rating (0 to 100 scale)", "setting": "[1]; 125 g ai/ha", "result": 90}, {"measurement": "Oat, Wild plant response rating (0-100)", "setting": "[2]; 31 g ai/ha", "result": 0}, {"measurement": "Oat, Wild plant response rating (0 to 100 scale)", "setting": "[2]; 125 g ai/ha", "result": 60}, {"measurement": "Soybean plant response rating (0-100)", "setting": "[3]; 31 g ai/ha", "result": 0}, {"measurement": "Soybean plant response rating (0 to 100 scale)", "setting": "[3]; 125 g ai/ha", "result": 20}, {"measurement": "Amaranth, Palmer plant response rating (0-100)", "setting": "[4]; 31 g ai/ha", "result": 30}, {"measurement": "Amaranth, Palmer plant response rating (0 to 100 scale)", "setting": "[4]; 125 g ai/ha", "result": 90}, {"measurement": "Foxtail, Green plant response rating (0-100)", "setting": "[5]; 31 g ai/ha", "result": 50}, {"measurement": "Foxtail, Green plant response rating (0 to 100 scale)", "setting": "[5]; 125 g ai/ha", "result": 90}, {"measurement": "Corn plant response rating (0-100)", "setting": "[6]; 31 g ai/ha", "result": 10}, {"measurement": "Corn plant response rating (0 to 100 scale)", "setting": "[6]; 125 g ai/ha", "result": 50}, {"measurement": "Barnyardgrass plant response rating (0-100)", "setting": "[7]; 31 g ai/ha", "result": 30}, {"measurement": "Barnyardgrass plant response rating (0 to 100 scale)", "setting": "[7]; 125 g ai/ha", "result": 80}, {"measurement": "Ragweed plant response rating (0-100)", "setting": "[8]; 31 g ai/ha", "result": 0}, {"measurement": "Ragweed plant response rating (0 to 100 scale)", "setting": "[8]; 125 g ai/ha", "result": 0}, {"measurement": "Blackgrass plant response rating (0-100)", "setting": "[9]; 31 g ai/ha", "result": 0}, {"measurement": "Blackgrass plant response rating (0 to 100 scale)", "setting": "[9]; 125 g ai/ha", "result": 50}, {"measurement": "Ryegrass, Italian plant response rating (0-100)", "setting": "[10]; 31 g ai/ha", "result": 80}, {"measurement": "Ryegrass, Italian plant response rating (0 to 100 scale)", "setting": "[10]; 125 g ai/ha", "result": 80}, {"measurement": "Kochia plant response rating (0-100)", "setting": "[11]; 31 g ai/ha", "result": 0}, {"measurement": "Kochia plant response rating (0 to 100 scale)", "setting": "[11]; 125 g ai/ha", "result": 90}, {"measurement": "Plant response rating, Barnyardgrass (0 to 100 scale, 0 is no effect and 100 is complete control)", "setting": "[12]", "result": 65}, {"measurement": "Plant response rating, Rice (0 to 100 scale, 0 is no effect and 100 is complete control)", "setting": "[13]", "result": 0}, {"measurement": "Plant response rating, Ducksalad (0 to 100 scale, 0 is no effect and 100 is complete control)", "setting": "[14]", "result": 70}, {"measurement": "Plant response rating, Sedge, Umbrella (0 to 100 scale, 0 is no effect and 100 is complete control)", "setting": "[15]", "result": 60}, {"measurement": "Wheat plant response rating (0-100)", "setting": "[16]; [29]", "result": 80}, {"measurement": "Wheat plant response rating (0 to 100 scale)", "setting": "[16]; [30]", "result": 90}, {"measurement": "Oat, Wild plant response rating (0-100)", "setting": "[17]; [29]", "result": 90}, {"measurement": "Oat, Wild plant response rating (0 to 100 scale)", "setting": "[17]; [30]", "result": 90}, {"measurement": "Soybean plant response rating (0-100)", "setting": "[18]; [29]", "result": 50}, {"measurement": "Soybean plant response rating (0 to 100 scale)", "setting": "[18]; [30]", "result": 60}, {"measurement": "Horseweed plant response rating (0-100)", "setting": "[19]; [29]", "result": 0}, {"measurement": "Horseweed plant response rating (0 to 100 scale)", "setting": "[19]; [30]", "result": 0}, {"measurement": "Amaranth, Palmer plant response rating (0-100)", "setting": "[20]; [29]", "result": 30}, {"measurement": "Amaranth, Palmer / Pigweed, Palmer plant response rating (0 to 100 scale)", "setting": "[20]; [30]", "result": 90}, {"measurement": "Foxtail, Green plant response rating (0-100)", "setting": "[21]; [29]", "result": 40}, {"measurement": "Foxtail, Green plant response rating (0 to 100 scale)", "setting": "[21]; [30]", "result": 90}, {"measurement": "Galium plant response rating (0-100)", "setting": "[22]; [29]", "result": 80}, {"measurement": "Galium plant response rating (0 to 100 scale)", "setting": "[22]; [30]", "result": 80}, {"measurement": "Corn plant response rating (0-100)", "setting": "[23]; [29]", "result": 50}, {"measurement": "Corn plant response rating (0 to 100 scale)", "setting": "[23]; [30]", "result": 100}, {"measurement": "Barnyardgrass plant response rating (0-100)", "setting": "[24]; [29]", "result": 60}, {"measurement": "Barnyardgrass plant response rating (0 to 100 scale)", "setting": "[24]; [30]", "result": 100}, {"measurement": "Ragweed plant response rating (0-100)", "setting": "[25]; [29]", "result": 0}, {"measurement": "Ragweed plant response rating (0 to 100 scale)", "setting": "[25]; [30]", "result": 40}, {"measurement": "Blackgrass plant response rating (0-100)", "setting": "[26]; [29]", "result": 70}, {"measurement": "Blackgrass plant response rating (0 to 100 scale)", "setting": "[26]; [30]", "result": 90}, {"measurement": "Ryegrass, Italian plant response rating (0-100)", "setting": "[27]; [29]", "result": 90}, {"measurement": "Ryegrass, Italian plant response rating (0 to 100 scale)", "setting": "[27]; [30]", "result": 90}, {"measurement": "Kochia plant response rating (0-100)", "setting": "[28]; [29]", "result": 10}, {"measurement": "Kochia plant response rating (0 to 100 scale)", "setting": "[28]; [30]", "result": 70}]}]}
